Data: patent publication US9045390B2, “Haloalkylmethyleneoxyphenyl-substituted ketoenols” (Bayer CropScience AG, priority 2009, dated 2015)
Like-named read-outs stand apart in the source and are kept apart here.

Legend:
[1] = log P determination by HPLC/LC-MS on reversed-phase column (C 18); format: physicochemical; details: pH 2.7, 0.1% aqueous formic acid and acetonitrile; for chromatographic logP: reversed-phase column (C 18), pH 2.7, LC-MS acidic range, read-out: log P (HCOOH)
Description: The log P values reported in the above tables and preparation examples are determined according to EEC Directive 79/831 Annex V.A8 by HPLC (High Performance Liquid Chromatography) on a reversed-phase column (C 18). Temperature: 43° C.
The determination is effected in the acidic range at pH 2.3 with 0.1% aqueous phosphoric acid and acetonitrile as eluent; linear gradient from 10% acetonitrile to 95% acetonitrile.
The determination by LC-MS in the acidic range is effected at pH 2.7 with 0.1% aqueous formic acid and acetonitrile (contains 0.1% formic acid) as the eluent; linear gradient from 10% acetonitrile to 95% acetonitrile.
The determination by LC-MS in the neutral range is effected at pH 7.8 with 0.001 molar aqueous ammonium hydrogen carbonate solution and acetonitrile as the eluent; linear gradient from 10% acetonitrile to 95% acetonitrile.
The calibration is effected with unbranched alkane-2-ones (with 3 to 16 carbon atoms), the log P values of which are known (determination of log P values on the basis of the retention times by linear interpolation between two successive alkanones).

cereals [2] = experiment: Container trials with cereals in a greenhouse, mefenpyr 1 day before herbicide application; format: in vivo
Description: (§1) Seeds of monocotyledonous and dicotyledonous weed and crop plants are placed in sandy loam in wood fibre pots, covered with soil and cultivated in a greenhouse under good growth conditions. Two to three weeks after sowing, the test plants are treated at the one-leaf stage. The test compounds, formulated as wettable powders (WP), are sprayed onto the green parts of the plants in different dosages with a water application rate of 600 l/ha (converted), with 0.2% added wetting agent. After the test plants have been kept in the greenhouse under optimal growth conditions for about three weeks, the effect of the preparations is assessed visually by comparison to untreated controls (herbicidal effect in per cent: 100% effect=the plants have died, 0% effect=like control plants).
(§2) If there is to be an additional test as to whether safeners can improve the plant compatibility of test substances in the case of crop plants, the following options are used for applying the safeners: • Seeds of the crop plants are, before sowing, dressed with safener substance (the amount of safener stated in per cent, based on the weight of the seed) • Before the application of the test substances, the crop plants are sprayed with the safener at a certain application rate per hectare (usually one day before the application of the test substances) • The safener is applied together with the test substance as a tankmix (the amount of safener is stated in g/ha or as a ratio, based on the herbicide).
Container Trials with Cereals in a Greenhouse
Mefenpyr 1 Day Before Herbicide Application

Maize (Aventura) = experiment: Container tests with maize-soya-cotton in a greenhouse, cyprosulfamide 1 day before herbicide application; format: in vivo
Description: as §1, §2
(§3) Container Tests with Maize-Soya-Cotton in a Greenhouse
(§4) Cyprosulfamide 1 Day Before Herbicide Application

cereals [3] = experiment: Container trials with cereals in a greenhouse, mefenpyr 1 day before herbicide application; format: in vivo; details: 10 days after application, 12.5 g a.i./ha
Maize (Arsenal) = experiment: Container tests with maize-soya-cotton in a greenhouse, cyprosulfamide 1 day before herbicide application; format: in vivo
Description: as §1, §2, §3, §4

Maize (Cecilia) = format: in vivo
Description: as §1, §2, §3, §4

[4] = system: cotton aphid (Aphis gossypii); experiment: Aphis gossypii test (with ammonium salts and penetration enhancers); format: in vivo; details: for Kill rate/% after 6 days: active ingredient alone, cotton plants
Description: Aphis gossypsi Test [table] To prepare an appropriate active ingredient preparation, 1 part by weight of active ingredient is mixed with the stated amounts of solvent and emulsifier, and the concentrate is diluted to the desired concentration with emulsifier-containing water. […] Cotton plants (Gossypium hirsutum) heavily infested by the cotton aphid (Aphis gossypii) are treated by spraying to runoff point with the active ingredient preparation of the desired concentration.

[5] = system: green peach aphid (Myzus persicae); experiment: Enhancement of activity by ammonium/phosphonium salts with penetration enhancers: Myzus persicae test; format: in vivo; details: 0.8 ppm
Description: Enhancement of Activity by Ammonium/Phosphonium Salts in Combination with Penetration Enhancers Myzus persicae Test [table] To prepare an appropriate active ingredient preparation, 1 part by weight of active ingredient is mixed with the stated amount of solvent and emulsifier, and the concentrate is diluted to the desired concentration with water. […] Bell pepper plants (Capsicum annuum) heavily infested by the green peach aphid (Myzus persicae) are treated by spraying to runoff point with the active ingredient preparation of the desired concentration.

[6] = system: green peach aphid (Myzus persicae); experiment: Myzus test (MYZUPE spray treatment); format: in vivo; details: application rate 20 g/ha, Chinese cabbage leaf discs
Description: Myzus Test (MYZUPE Spray Treatment)
To prepare an appropriate active ingredient preparation, 1 part by weight of active ingredient is mixed with the stated amounts of solvent and emulsifier, and the concentrate is diluted with emulsifier-containing water to the desired concentration.
Discs of Chinese cabbage (Brassica pekinensis) infected by all stages of the green peach aphid (Myzus persicae) are sprayed with an active ingredient preparation of the desired concentration.
After the desired time, the effect in % is determined. 100% means that all of the aphids have been killed; 0% means that none of the aphids have been killed.

[7] = 28 days after application, 12.5 g a.i./ha
[8] = 28 days after application, 25 g a.i./ha
[9] = 28 days after application, 50 g a.i./ha
[10] = Summer barley, 28 days after application, 12.5 g a.i./ha
[11] = Summer barley, 28 days after application, 25 g a.i./ha
[12] = Summer barley, 28 days after application, 50 g a.i./ha
[13] = 28 days after application, 100 g a.i./ha

`Cc1cc(OCC(F)(F)F)cc(C)c1CC(=O)O` [XXXI-1, 2,6-Dimethyl-4-trifluoroethoxyphenylacetic acid] gave a chromatographic logP [1] of 2.51.
With `CCCOC1CCCC2(C1)NC(=O)C(c1c(C)cc(OCC(F)(F)F)cc1CC)=C2O` (stereo not shown) [Example I-1-a-14] the “Summer wheat observed (%)” value (cereals [2]; [7]) was 93%, the “Summer wheat observed (%)” value (cereals [2]; [8]) was 99% and the “Summer wheat observed (%)” value (cereals [2]; [9]) was 100%.
With `CO[C@H]1CC[C@]2(CC1)NC(=O)C(c1c(C)cc(OCC(F)(F)F)cc1C)=C2OC(=O)C(C)C` [Example I-1-b-2] the “Summer barley observed (%)” value (cereals [2]; in vivo) was 50%.
For `CCc1cc(OCC(F)(F)F)cc(C)c1C1=C(O)C2(CCC(C)(OC)CC2)NC1=O` (stereo not shown) [Example I-1-a-37], the “Summer wheat observed (%)” value (cereals [2]; [7]) was 70%.
In the case of `CCc1cc(OCC(F)(F)F)cc(C)c1C1=C(O)C2(CCC(C)CC2)NC1=O` (stereo not shown) [Example I-1-a-8], the “Summer wheat observed (%)” value (cereals [2]; [7]) is reported as 98%, the “28 days after application Maize (Aventura) observed (%)” value (“28 days … (Aventura) observed (%)” for short) (Maize (Aventura); 12.5 g a.i./ha) is reported as 35% and the “28 days … (Aventura) observed (%)” value (Maize (Aventura); 25 g a.i./ha) is reported as 60%. The “28 days … (Aventura) observed (%)” value (Maize (Aventura); 50 g a.i./ha) was 70% and the “Summer wheat observed (%)” value (cereals [3]) was 65%.
In the case of `CCCCOC1CCCC2(C1)NC(=O)C(c1c(C)cc(OCC(F)(F)F)cc1CC)=C2O` (stereo not shown) [Example I-1-a-15], the “Summer barley observed (%)” value (cereals [2]; [10]) is reported as 70%, the “Summer barley observed (%)” value (cereals [2]; [11]) is reported as 85% and the “Summer barley observed (%)” value (cereals [2]; [12]) is reported as 97%. The “Summer wheat observed (%)” value (cereals [2]; [7]) was 10%, the “Summer wheat observed (%)” value (cereals [2]; [8]) was 30% and the “Summer wheat observed (%)” value (cereals [2]; [9]) was 40%. The “Summer wheat observed (%)” value (cereals [2]; [13]) was 60%.
In the case of `CCOC(=O)OC1=C(c2c(C)cc(OCC(F)(F)F)cc2C)C(=O)NC12CCCC(OCC)C2` (stereo not shown) [Example I-1-c-2], the “28 days after application Maize (Arsenal) observed (%)” value (from here on “28 days … (Arsenal) observed (%)”) (Maize (Arsenal); 25 g a.i./ha) is reported as 20%, the “28 days … (Arsenal) observed (%)” value (Maize (Arsenal); 50 g a.i./ha) is reported as 20% and the “28 days … (Arsenal) observed (%)” value (Maize (Arsenal); 100 g a.i./ha) is reported as 25%. The “28 days after application Maize (Cecilia) observed (%)” value (“28 days … (Cecilia) observed (%)” for short) (Maize (Cecilia); 100 g a.i./ha) was 75%.
In the case of `Cc1ccc(OCC(F)(F)F)c(C)c1C1=C(O)C2(CCOCC2)NC1=O` [Example I-1-a-31], the “Kill rate/% after 6 days +AS (1000 ppm)” value ([4]; 4 ppm) is reported as 10%, the “Kill rate/% after 6 days +RME (1000 ppm)” value ([4]; 4 ppm) is reported as 5% and the “Kill rate/% after 6 days +RME +AS (1000 ppm each)” value (shortened to “Kill rate/% … (1000 ppm each)”) ([4]; 4 ppm) is reported as 35%. For the same molecule, the “Kill rate/% after 6 days” value ([4]; 4 ppm) was 0%.
With `CCCOC1CCCC2(C1)NC(=O)C(c1c(C)cc(OCC(F)(F)F)cc1C)=C2O` (stereo not shown) [Example I-1-a-19] the “Summer barley observed (%)” value (cereals [2]; [11]) was 70%, the “Summer wheat observed (%)” value (cereals [2]; [7]) was 10% and the “Summer wheat observed (%)” value (cereals [2]; [8]) was 20%. The “Summer wheat observed (%)” value (cereals [2]; [9]) was 70% and the “Summer wheat observed (%)” value (cereals [2]; [13]) was 85%.
For `COC1CCC2(CC1)NC(=O)C(c1c(C)cc(OCC(F)(F)F)cc1C)=C2O` (stereo not shown) [Example I-1-a-25], the “Kill rate/% after 6 days +AS (1000 ppm)” value ([5]; +AS (1000 ppm)) was 0%, the “Kill rate/% after 6 days +RME (1000 ppm)” value ([5]; +RME (1000 ppm)) was 40% and the “Kill rate/% … (1000 ppm each)” value ([5]; +RME +AS (1000 ppm each)) was 55%. For the same molecule, the “Kill rate/% after 6 days” value ([5]; active ingredient alone, bell pepper plants) was 0%, the “Kill rate/% after 6 days +AS (1000 ppm)” value ([4]; 0.8 ppm) was 35% and the “Kill rate/% after 6 days +RME (1000 ppm)” value ([4]; 0.8 ppm) was 20%. For the same molecule, the “Kill rate/% … (1000 ppm each)” value ([4]; 0.8 ppm) was 85%, the “Kill rate/% after 6 days” value ([4]; 0.8 ppm) was 0% and the “Summer wheat observed (%)” value (cereals [2]; [7]) was 70%. The “28 days … (Arsenal) observed (%)” value (Maize (Arsenal); 12.5 g a.i./ha) was 5%, the “28 days … (Arsenal) observed (%)” value (Maize (Arsenal); 25 g a.i./ha) was 15% and the “28 days … (Arsenal) observed (%)” value (Maize (Arsenal); 50 g a.i./ha) was 75%. The “28 days … (Arsenal) observed (%)” value (Maize (Arsenal); 100 g a.i./ha) was 100%, the “28 days … (Cecilia) observed (%)” value (Maize (Cecilia); 12.5 g a.i./ha) was 0% and the “28 days … (Cecilia) observed (%)” value (Maize (Cecilia); 25 g a.i./ha) was 10%. The “28 days … (Cecilia) observed (%)” value (Maize (Cecilia); 50 g a.i./ha) was 20%, the “28 days … (Cecilia) observed (%)” value (Maize (Cecilia); 100 g a.i./ha) was 35% and the “Summer wheat observed (%)” value (cereals [3]) was 40%.
With `CCc1cc(OCC(F)(F)F)cc(C)c1C1=C(O)C2(CCC3(CC2)OCC(C)O3)NC1=O` (stereo not shown) [Example I-1-a-7] the “Summer wheat observed (%)” value (cereals [2]; [7]) was 50%, the “Summer wheat observed (%)” value (cereals [2]; [8]) was 50% and the “Summer wheat observed (%)” value (cereals [2]; [9]) was 70%. The “Summer wheat observed (%)” value (cereals [2]; [13]) was 70%.
For `COC1CCC2(CC1)NC(=O)C(c1c(C)ccc(OCC(F)(F)F)c1C)=C2O` (stereo not shown) [Example I-1-a-29], the “Kill rate/% after 6 days +AS (1000 ppm)” value ([4]; 4 ppm) was 15%, the “Kill rate/% after 6 days +RME (1000 ppm)” value ([4]; 4 ppm) was 80% and the “Kill rate/% … (1000 ppm each)” value ([4]; 4 ppm) was 95%. For the same molecule, the “Kill rate/% after 6 days” value ([4]; 4 ppm) was 10%.
In the case of `CCc1cc(OCC(F)(F)F)cc(C)c1C1=C(O)C2(CCC3(CC2)OCCO3)NC1=O` [Example I-1-a-6], the “Summer wheat observed (%)” value (cereals [2]; [7]) is reported as 70% and the “Summer wheat observed (%)” value (cereals [2]; [8]) is reported as 85%.
In the case of `CCOC1CCCC2(CC1)NC(=O)C(c1c(C)cc(OCC(F)(F)F)cc1CC)=C2O` (stereo not shown) [Example I-1-a-5], the “Summer barley observed (%)” value (cereals [2]; [10]) is reported as 65%, the “Summer barley observed (%)” value (cereals [2]; [11]) is reported as 95% and the “Summer wheat observed (%)” value (cereals [2]; [7]) is reported as 65%.
With `COCC1CCC2(CC1)NC(=O)C(c1c(C)cc(OCC(F)(F)F)cc1C)=C2O` (stereo not shown) [Example I-1-a-17] the “Summer barley observed (%)” value (cereals [2]; [12]) was 40%, the “Summer barley observed (%)” value (cereals [2]; Summer barley, 28 days after application, 100 g a.i./ha) was 80% and the “Summer barley observed (%)” value (cereals [2]; Summer barley, 28 days after application, 200 g a.i./ha) was 95%.
`Cc1ccc(OCC(F)(F)F)cc1C1=C(OC(=O)C(C)(C)C)C2(CCCC2)OC1=O` [Example I-2-b-1] gave a chromatographic logP [1] of 4.69.
In the case of `Cc1cc(OCC(F)(F)F)cc(C)c1C1=C(O)C2CCCCN2C1=O` (stereo not shown) [Example I-1-a-20], the “effect in % (aphids killed)” value [6] is reported as at least 80%.
`CCOC(=O)C1(OC(=O)Cc2c(C)cc(OCC(F)(F)F)cc2C)CCOCC1` [III-1] showed a chromatographic logP [1] of 3.78.
With `Cc1ccc(OCC(F)(F)F)cc1C1=C(O)C2(CCCC2)OC1=O` [Example I-2-a-1] the “log P (HCOOH)” value ([1]; LC-MS acidic range) was 2.45 and the chromatographic logP [1] was 2.59.
